{"source": "patent US20060240493A1", "about": "“Cca1 as an antifungal target” (priority 2002, published 2006)", "origin": "cited, not measured here", "details": "mice, DOX 2 mg/ml in 5% sucrose drinking water, approximately 5 ml every day", "data": [{"compound": "C[C@H]1c2cccc(O)c2C(=O)C2=C(O)[C@]3(O)C(=O)C(C(N)=O)=C(O)[C@@H](N(C)C)[C@@H]3[C@@H](O)[C@@H]21", "note": "[doxycycline]", "values": [{"measurement": "concentration of DOX in kidney", "result": "> 10 mg/g of kidney"}, {"measurement": "concentration of DOX in liver", "result": "> 8 mg/g of liver"}, {"measurement": "concentration of DOX in serum", "result": "more than 2 mg/ml of serum"}]}]}
